# Source: publication PMC7606179 (Acta Pharmaceutica Sinica. B, 2020)
# “Also recorded” adds a separate entry of the source.
# Assays:
# [1] = molecular target: Oseltamivir resistant (with H274Y mutation) neuraminidase (Influenza A virus, UniProt P03468, H260Y); type: biochemical, recombinant PR8 virus with H274Y mutation
# [2] = system: PR8 resistant recombinant virus with H274Y mutation in MDCK cells; type: cell-based
Structure (SMILES),NA inhibitory activity on oseltamivir resistant NA [1],also measured
"COC(=O)C1CC(=O)c2oc(=O)c3cc(O)c(O)c(O)c3c21 (stereo not shown) [B15, Methyl brevifolin carboxylate]",can obviously inhibit NA activities,
"O=c1oc2c(O)c(O)cc3c(=O)oc4c(O)c(O)cc1c4c23 [B21, Ellagic acid]",can obviously inhibit NA activities,
"O=C(/C=C/c1ccc(O)cc1)OC[C@H]1O[C@@H](Oc2c(-c3ccc(O)cc3)oc3cc(O)cc(O)c3c2=O)[C@H](O)[C@@H](O)[C@@H]1O [B23, Tiliroside]",,Effect on replication of oseltamivir resistant (H274Y) PR8 virus in MDCK cells [2]: obviously reduce; also recorded: greatly reduce
CCOC(=O)C1=C[C@@H](OC(CC)CC)[C@H](NC(C)=O)[C@@H](N)C1 [Oseltamivir],,Anti-virus effect on resistant virus with NA H274Y mutation in MDCK cells [2]: didn't show obvious anti-virus effects
